PubChem BioAssay AID248 (DTP/NCI, 2004)
Where “and” joins values, the source holds several entries; their conditions need not be identical. Equal entries are not always repeated. Toxic doses and inconclusive results are not listed. Cut-off read from the data, not from the text of the source: active = T/C of 150% or more; inactive = T/C below 125%.

System: L1210 leukemia ip in BDF1 mice, survival T/C
Experiment: NCI In Vivo Anticancer Drug Screen. Data for tumor model L1210 Leukemia (intraperitoneal) in B6D2F1 (BDF1) mice
Conditions: endpoint: mean survival time, higher = longer survival
Procedure, shortened: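 Antitumor effect is assessed in tumor-bearing animals. Survival in the compound arm is compared with a vehicle-dosed control arm and expressed as their quotient.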

[1] = dose: 50.0 mg/kg/injection, schedule: Q04DX003 (ip), vehicle: Klucel (hydroxypropylcellulose) (HPC)
[2] = dose: 100.0 mg/kg/injection, schedule: Q01DX009 (ip), vehicle: Klucel (hydroxypropylcellulose) (HPC)
[3] = dose: 100.0 mg/kg/injection, schedule: Q04DX003 (ip), vehicle: Klucel (hydroxypropylcellulose) (HPC)
[4] = dose: 200.0 mg/kg/injection, schedule: Q01DX009 (ip), vehicle: Klucel (hydroxypropylcellulose) (HPC)
[5] = dose: 200.0 mg/kg/injection, schedule: Q04DX003 (ip), vehicle: Klucel (hydroxypropylcellulose) (HPC)
[6] = dose: 100.0 mg/kg/injection, schedule: Q01DX009 (ip), vehicle: saline with Tween-80
[7] = dose: 100.0 mg/kg/injection, schedule: Q04DX003 (ip), vehicle: saline with Tween-80
[8] = dose: 200.0 mg/kg/injection, schedule: Q01DX009 (ip), vehicle: saline with Tween-80
[9] = dose: 200.0 mg/kg/injection, schedule: Q04DX003 (ip), vehicle: saline with Tween-80
[10] = dose: 400.0 mg/kg/injection, schedule: Q01DX009 (ip), vehicle: saline with Tween-80
[11] = dose: 400.0 mg/kg/injection, schedule: Q04DX003 (ip), vehicle: saline with Tween-80
[12] = dose: 100.0 mg/kg/injection, schedule: Q01DX001 (ip), vehicle: saline
[13] = dose: 200.0 mg/kg/injection, schedule: Q01DX001 (ip), vehicle: saline
[14] = dose: 400.0 mg/kg/injection, schedule: Q04DX003 (ip), vehicle: Klucel (hydroxypropylcellulose) (HPC)
[15] = dose: 25.0 mg/kg/injection, schedule: Q04DX003 (ip), vehicle: saline
[16] = dose: 50.0 mg/kg/injection, schedule: Q04DX003 (ip), vehicle: saline
[17] = dose: 100.0 mg/kg/injection, schedule: Q01DX009 (ip), vehicle: saline
[18] = dose: 100.0 mg/kg/injection, schedule: Q04DX003 (ip), vehicle: saline
[19] = dose: 400.0 mg/kg/injection, schedule: Q01DX009 (ip), vehicle: Klucel (hydroxypropylcellulose) (HPC)
[20] = dose: 50.0 mg/kg/injection, schedule: Q01DX009 (ip), vehicle: saline with Tween-80
[21] = dose: 400.0 mg/kg/injection, schedule: Q01DX001 (ip), vehicle: saline

Measured: T/C

O=C(Oc1ccc(Cl)cc1Cl)Oc1ccc(Cl)cc1Cl
inactive: dose: 50.0 mg/kg/injection, schedule: Q01DX001 (ip), vehicle: carboxymethylcellulose (CMC) 98 % of control | dose: 50.0 mg/kg/injection, schedule: Q01DX009 (ip), vehicle: Klucel (hydroxypropylcellulose) (HPC) 105 % of control | [1] 98 % of control | dose: 100.0 mg/kg/injection, schedule: Q01DX001 (ip), vehicle: carboxymethylcellulose (CMC) 104 % of control | [2] 100 % of control | [3] 95 % of control | dose: 200.0 mg/kg/injection, schedule: Q01DX001 (ip), vehicle: carboxymethylcellulose (CMC) 104 % of control | [4] 103 % of control | [5] 106 % of control | dose: 400.0 mg/kg/injection, schedule: Q01DX001 (ip), vehicle: carboxymethylcellulose (CMC) 93 % of control

Cc1cc(Br)c2ccccc2c1NS(=O)(=O)c1ccccc1
inactive: [6] 100 % of control | [7] 109 % of control | [8] 90 % of control | [9] 100 % of control | [10] 92 % of control | [11] 105 % of control

O=[N+]([O-])c1ccc(/C=C/c2ccccc2)c(Cl)c1
inactive: dose: 100.0 mg/kg/injection, schedule: Q01DX001 (ip), vehicle: saline with Tween-80 95 % of control | dose: 200.0 mg/kg/injection, schedule: Q01DX001 (ip), vehicle: saline with Tween-80 102 % of control | dose: 400.0 mg/kg/injection, schedule: Q01DX001 (ip), vehicle: saline with Tween-80 95 % of control

O=C1c2cc(Br)ccc2-c2ccc(Br)cc21
inactive: dose: 50.0 mg/kg/injection, schedule: Q01DX001 (ip), vehicle: saline 90 % of control | [12] 100 % of control | [13] 90 % of control

c1ccc(-c2nc(N=C3N=c4ccccc4=N3)[nH]c2-c2ccccc2)cc1
inactive: [3] 112 % of control | [5] 100 % of control | [14] 96 % of control

CCOc1ccc(C(=O)O)cc1OCC
inactive: [7] 110 % of control | [9] 98 % of control | [11] 96 % of control

CCCCCCC[CH2][Sn]1([CH2]CCCCCCC)[O]OC(c2ccccc2)[O]1 (configuration not stated)
inactive: dose: 6.25 mg/kg/injection, schedule: Q04DX002 (ip), vehicle: saline with Tween-80 102 % of control | dose: 12.5 mg/kg/injection, schedule: Q04DX002 (ip), vehicle: saline with Tween-80 98 % of control | dose: 25.0 mg/kg/injection, schedule: Q04DX002 (ip), vehicle: saline with Tween-80 91 % of control

CCNCCCN
inactive: dose: 25.0 mg/kg/injection, schedule: Q01DX009 (ip), vehicle: saline 97 % of control | [15] 115 % of control | dose: 50.0 mg/kg/injection, schedule: Q01DX009 (ip), vehicle: saline 101 % of control | [16] 115 % of control | [17] 103 % of control | [18] 93 % of control and 103 % of control

CCCCCCCCNc1ccc(Cl)cc1
inactive: dose: 100.0 mg/kg/injection, schedule: Q01DX001 (ip), vehicle: saline + alcohol 91 % of control | dose: 200.0 mg/kg/injection, schedule: Q01DX001 (ip), vehicle: saline + alcohol 102 % of control | dose: 400.0 mg/kg/injection, schedule: Q01DX001 (ip), vehicle: saline + alcohol 98 % of control

NC(=O)Oc1ccc(Cc2ccccc2)cc1
inactive: [2] 97 % of control | [3] 95 % of control | [4] 103 % of control | [5] 97 % of control | [19] 110 % of control | [14] 95 % of control

O=C(c1ccccc1)c1c2ccccc2cc2ccccc12
inactive: [20] 91 % of control | [6] 90 % of control | [7] 89 % of control | [9] 89 % of control | [11] 90 % of control

CCN(C)CCC(CN)(CCN(C)CC)c1cccc2ccccc12
inactive: dose: 12.5 mg/kg/injection, schedule: Q04DX003 (ip), vehicle: saline 93 % of control | [15] 101 % of control | [16] 93 % of control

Cc1ccc(C2(CO)OCC(O)C(O)C2O)cc1 (configuration not stated)
inactive: [12] 100 % of control | [13] 96 % of control | [21] 98 % of control

CC/C=C(/C#N)CC
inactive: dose: 100.0 mg/kg/injection, schedule: Q04DX002 (ip), vehicle: saline with Tween-80 104 % of control | dose: 200.0 mg/kg/injection, schedule: Q04DX002 (ip), vehicle: saline with Tween-80 93 % of control

Clc1ccc2nc(CBr)cnc2c1
inactive: dose: 3.13 mg/kg/injection, schedule: Q01DX009 (ip), vehicle: Klucel (hydroxypropylcellulose) (HPC) 97 % of control | dose: 6.25 mg/kg/injection, schedule: Q01DX009 (ip), vehicle: Klucel (hydroxypropylcellulose) (HPC) 95 % of control and 102 % of control | dose: 12.5 mg/kg/injection, schedule: Q01DX009 (ip), vehicle: Klucel (hydroxypropylcellulose) (HPC) 100 % of control and 120 % of control and 87 % of control | dose: 25.0 mg/kg/injection, schedule: Q01DX009 (ip), vehicle: saline with Tween-80 100 % of control | dose: 25.0 mg/kg/injection, schedule: Q04DX003 (ip), vehicle: Klucel (hydroxypropylcellulose) (HPC) 95 % of control | [20] 95 % of control | [1] 96 % of control | [3] 93 % of control | [7] 90 % of control

CC(=O)OCC(=O)C1CCC=CC1OC(C)=O (configuration not stated)
inactive: [17] 105 % of control | [18] 93 % of control | dose: 200.0 mg/kg/injection, schedule: Q01DX009 (ip), vehicle: saline 105 % of control | dose: 200.0 mg/kg/injection, schedule: Q04DX003 (ip), vehicle: saline 91 % of control | dose: 400.0 mg/kg/injection, schedule: Q01DX009 (ip), vehicle: saline 98 % of control | dose: 400.0 mg/kg/injection, schedule: Q04DX003 (ip), vehicle: saline 91 % of control

O=S(=O)(O)c1ccc(Nc2ccccc2)cc1
inactive: [2] 103 % of control and 100 % of control | [3] 107 % of control and 103 % of control | [4] 103 % of control and 102 % of control | [5] 96 % of control and 103 % of control | [19] 108 % of control and 102 % of control | [14] 102 % of control and 101 % of control

CCS(=O)(=O)C(CCC(S(=O)(=O)CC)S(=O)(=O)CC)S(=O)(=O)CC
inactive: [12] 110 % of control | [13] 96 % of control | [21] 102 % of control

CC(=O)Oc1ccc(N(CCO)CCO)cc1OC(C)=O
inactive: dose: 1.17 mg/kg/injection, schedule: Q01DX001 (ip), vehicle: water 103 % of control | dose: 2.34 mg/kg/injection, schedule: Q01DX001 (ip), vehicle: water 97 % of control | dose: 4.68 mg/kg/injection, schedule: Q01DX001 (ip), vehicle: water 100 % of control

O=C1C(=O)c2ccc(Br)cc2C(O)=C1C(c1ccccc1)c1ccccc1
inactive: [12] 100 % of control | [13] 106 % of control | [21] 96 % of control

O=C(Cl)c1ccccc1/C=C/c1ccccc1
inactive: [6] 89 % of control | [8] 89 % of control | [10] 93 % of control

CCCN(CCC)CCCCCO
inactive: [20] 102 % of control | [6] 106 % of control | [7] 94 % of control | [8] 102 % of control | [9] 102 % of control
